Source: US5272175A, “Substituted tyrosyl diamide compounds” (priority 1992, dated 1993)
Structures can show the parent of a compound that is named as a salt. Where two headings read alike, the source gives them in different places.

Legend:
mice [1] = conditions: general statement on both tests; cited from earlier work
mice [2] = conditions: general statement on both tests; cited from earlier work; remark: listed apart in the source
mice [3] = experiment: Writhing Assay (phenylbenzoquinone (PBQ)-induced writhing), analgesic activity; format: in vivo, CD Charles River mice; conditions: Mus musculus, 50% of mice with writhes <= half control median
Description: The "Writhing Assay" is one of the most widely-used experimental procedures for measuring the analgesic activity of different narcotic and nonnarcotic analgesic agents, and involves the continuous, chemically-induced pain of visceral origin to an animal, such as a mouse or rat. [Gyires et al., Arch. int. Pharmacodyn, 267, 131-140 (1984); C. Vander Wende et al., Fed. Proc., 15, 494 (1956); Koster et al., Fed. Proc., 18, 412 (1959); and Witken et al., J. Pharmacol. Exp. Ther., 133, 400-408 (1961).] Chemicals which may be used to induce this pain include phenylbenzoquinone (PBQ) and acetic acid. As a result of the chemical irritation to the animal, a characteristic stretching and writhing of the animal (dorsiflexion of the animal's back, extension of its hindlimbs and the strong contraction of its abdominal musculature) will generally occur. […] Drugs which reduce the number of writhes of the animal appear to restore the normal nociceptive threshold of the animal.
This assay was conducted generally in the manner described by R. I. Taber, "Predictive Value of Analgesic Assays in Mice and Rats," Advances in Biochemical Phychopharmacology, 8, 191 (1974).
Two hundred CD Charles River mice, weighing 20 to 30 grams, were used in this assay.
Twenty-five minutes after subcutaneous administration, and fifteen minutes after oral administration, to the mice of 10 mg per kilogram (mpk) of body weight of either a tyrosyl diamide compound of the invention (hereinafter "test compound"), or of the Jacobson Compound, 0.1 mL per 10 g of body weight of a 0.025% w/v solution of phenylbenzoquinone (PBQ) was injected intraperitoneally into each mouse. Some mice were given saline in place of a test compound, or of the Jacobson Compound, and were used as a control group.
Five minutes later, each mouse was individually placed into a glass beaker for observation, and the number of writhes occurring during the following ten-minute period was counted.
A compound was considered to be "active" (to have produced analgesia in a mouse) if, after the administration of 10 mg per kilogram (mpk) of body weight of the compound to the mouse, the number of writhes elicited by a mouse injected with PBQ was equal to, or less than, one-half the median number of writhes recorded for the saline-treated control group of mice that day, as described by R. I. Taber, supra.
The standard initial screening dose of a test compound employed in this assay was 10 mpk […] for both routes of administration. If this initial screening dose of the compound produced analgesia in seven of ten mice, then the effect of additional doses of the compound on the writhing response was evaluated, and then the ED50 value (that dose of a compound which produced analgesia in 50% of the mice to which the compound was administered) was calculated. A maximum likelihood function was used to determine the ED50 value. (The slopes of the dose-response curves for the compounds analyzed were compared as described by Tallarida and Murray, Manual of Pharmacologic Calculations, Page 1 (Springer Verlag, N.Y., 1981)).

δ opioid receptors = δ opioid receptors (Rattus norvegicus, UniProt P33533); experiment: Opiate Binding Assay, displacement of 3[H]-DSLET from δ receptors; conditions: for Mean IC50 μ/δ Ratio: ratio of mean IC50 values for μ and δ, above 1.0 = more δ specific
μ opioid receptors = μ opioid receptors (Rattus norvegicus, UniProt P33535); experiment: Opiate Binding Assay, displacement of 3[H]-DAMPGO from μ receptors
[4] = tested on: brain opioid receptor sites; conditions: cited from earlier work
opioid activity = conditions: cited from earlier work
[5] = sc, 25 min, subcutaneous, PBQ i.p. 25 min after compound, read-out: ED50, Writhing Assay, Subcutaneous (S.C.)
[6] = read-out: Mean IC50 Value, δ, rat forebrain membranes, 3[H]-DSLET 1.0 nM, 37° C., pH 7.4
[7] = read-out: Mean IC50 Value, μ, rat forebrain membranes, 3[H]-DAMPGO 2.0 nM, 37° C., pH 7.4

μ opioid receptors, sequence (P33535 whole entry): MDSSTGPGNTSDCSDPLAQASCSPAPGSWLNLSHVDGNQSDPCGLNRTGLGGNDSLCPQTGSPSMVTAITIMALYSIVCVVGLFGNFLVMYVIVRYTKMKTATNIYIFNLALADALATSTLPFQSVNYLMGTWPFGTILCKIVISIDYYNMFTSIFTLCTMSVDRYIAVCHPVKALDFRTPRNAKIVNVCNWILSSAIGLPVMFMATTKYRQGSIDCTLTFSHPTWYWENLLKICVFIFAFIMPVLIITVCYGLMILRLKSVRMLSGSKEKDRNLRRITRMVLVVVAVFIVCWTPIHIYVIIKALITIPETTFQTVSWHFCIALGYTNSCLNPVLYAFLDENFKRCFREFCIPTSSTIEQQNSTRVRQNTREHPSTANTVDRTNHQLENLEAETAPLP
δ opioid receptors, sequence (P33533 whole entry): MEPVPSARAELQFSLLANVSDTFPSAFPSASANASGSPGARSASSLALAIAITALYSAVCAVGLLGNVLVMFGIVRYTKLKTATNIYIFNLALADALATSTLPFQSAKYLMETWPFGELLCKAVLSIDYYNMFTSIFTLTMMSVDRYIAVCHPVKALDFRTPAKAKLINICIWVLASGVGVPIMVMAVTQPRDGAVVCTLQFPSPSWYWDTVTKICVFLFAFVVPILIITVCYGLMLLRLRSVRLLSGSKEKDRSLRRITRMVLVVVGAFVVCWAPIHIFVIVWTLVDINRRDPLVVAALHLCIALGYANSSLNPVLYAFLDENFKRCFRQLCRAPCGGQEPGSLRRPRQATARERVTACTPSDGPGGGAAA

SMILES	ED50 (mice [3]; [5])	IC50 (δ opioid receptors)	IC50 (μ opioid receptors)	Mean IC50 μ/δ Ratio (δ opioid receptors)	also measured
CC(=O)Oc1ccccc1C(=O)O [aspirin]					activity in Tail Flick Assay (mice [1]): little activity; activity in Hot Plate Assay (mice [2]): little activity
COc1ccc2c3c1O[C@H]1[C@@H](O)C=C[C@H]4[C@@H](C2)N(C)CC[C@@]341 [codeine]					activity in Tail Flick Assay (mice [1]): active in both of these tests; activity in Hot Plate Assay (mice [2]): active in both of these tests
CNC(=O)N[C@@H](Cc1ccccc1)C(=O)NCC(C)(C)NC(=O)[C@@H](N)Cc1c(C)cc(O)cc1C [Example 37, αS-amino-N-1,1-dimethyl-2-[2S-[[(methylamino)carbonyl]amino]-1-oxo-3-phenylpropyl]amino]ethyl]-4-hydroxy-2,6-dimethylbenzeneoropanamide, monohydrochloride]	5 mg/kg	~2 nM	< 10 nM		
CC(C)C[C@H](NC(=O)[C@H](Cc1ccccc1)NC(=O)CNC(=O)CNC(=O)[C@@H](N)Cc1ccc(O)cc1)C(=O)O [leucine enkephalin, H2 N-Tyr-Gly-Gly-Phe-Leu-OH]					binding to opiate / brain opioid receptor sites [4]: bind to the same receptor sites as do the opiates; opioid / morphine-like activity (opioid activity): some weak morphine-like actions
Cc1cc(CC(=O)O)n(C)c1C(=O)c1ccc(Cl)cc1 [Zomax]					activity in Tail Flick Assay (mice [1]): little activity; activity in Hot Plate Assay (mice [2]): little activity
CC(=O)N[C@@H](CCc1ccccc1)C(=O)NCC(C)(C)NC(=O)[C@@H](N)Cc1c(C)cc(O)cc1C [Example 18, αS-(acetylamino)-N-[2-[[2S-amino-3-(4-hydroxy-2,6-dimethylohenyl)-1-oxopropyl]amino]-2-methyloropyl]-benzenebutanamide, hydrochloride]	5 mg/kg	4.7 nM	0.33 nM	0.07	
Cc1cc(O)cc(C)c1C[C@H](N)C(=O)NC(C)(C)CNC(=O)[C@H](Cc1ccccc1)NC(=O)OCc1ccccc1 [Example 10, Phenylmethyl[1S-[[2-[[2S-amino-3-(4-hydroxy-2,6-dimethylohenyl)-1-oxopropyl]amino]-2-methylpropyl]-amino]carbonyl]-2-phenylethyl]carbamate, monohydrochloride]	5 mg/kg	4 nM	3.3 nM	0.8	
CC(=O)N[C@@H](Cc1ccccc1)C(=O)NCC(C)(C)NC(=O)[C@@H](N)Cc1ccc(O)cc1 [Jacobson Compound, reference compound]	1.6 mg/kg	2 nM	0.6 nM	0.3	ED50 (mice [3]; 0.25 h, oral, PBQ i.p. 15 min after compound, read-out: ED50, Writhing Assay, Oral (p.o.)): 4.1 mg/kg
CC(=O)N[C@@H](Cc1c(C)cccc1C)C(=O)NCCNC(=O)[C@@H](N)Cc1c(C)cc(O)cc1C [Example 52, αS-(Acetylamino)-N-[2-[[2S-amino-3-(4-hydroxy-2,6-dimethylphenyl)-1-oxopropyl]amino]ethyl]-2,6-dimethylbenzeneoropanamide, hydrochloride]	5 mg/kg	32 nM	0.6 nM		
CC(=O)N[C@@H](Cc1ccccc1)C(=O)NCC(C)(C)NC(=O)[C@@H](N)Cc1c(C)cc(OC(C)=O)cc1C [Example 16, αS-(acetylamino)-N-2-[2-[[4-(acetyloxy)-2,6-dimethylphenyl]-2S-amino-1-oxopropyl]amino]-2-methylpropyl]benzenepropanamide, hydrochloride]	5 mg/kg			0.7	IC50 (δ opioid receptors; [6]): 0.78 nM; IC50 (μ opioid receptors; [7]): 0.51 nM
Cc1cc(O)c(C)c(C)c1C[C@@H](N)C(=O)NC(C)(C)CNC(=O)[C@H](Cc1ccccc1)NC(=O)OCc1ccccc1 [Example 31, Phenylmethyl[1S[[[2-[[2R-amino-3-(4-hydroxy-2,3,6-trimethylphenyl) -1-oxopropyl]amino]-2-methylpropyl]amino]carbonyl1-2-phenylethyl]carbamate, hydrochloride]		> 100 nM	100 nM		
CC(=O)N[C@@H](Cc1ccccc1)C(=O)N1CCC(NC(=O)[C@@H](N)Cc2c(C)cc(O)cc2C)C1 (stereo partly drawn) [Example 56, N-1-[2S-(Acetylamino)-1-oxo-3-phenylpropyl]-3-pyrrolidinyl]-αS-amino-4-hydroxy-2,6-dimethylbenzenepropanamide, monohydrochloride]		50.3 nM	85.5 nM	1.7	
CC(=O)N[C@@H](Cc1ccccc1)C(=O)N1CCN(C(=O)[C@@H](N)Cc2c(C)cc(O)cc2C)CC1 [Example 54, N-[1S-[[4-[2-S-Amino-3-(4-hydroxy-2,6-dimethylphenyl)-1-oxopropyl]-1-piperazinyl]carbonyl]-2-phenylethyl]acetamide, monohydrochloride]		88.8 nM	3.3 nM	0.04	
CN1CC[C@]23c4c5ccc(O)c4O[C@H]2[C@@H](O)C=C[C@H]3[C@H]1C5 [morphine]					activity in Tail Flick Assay (mice [1]): active in both of these tests; activity in Hot Plate Assay (mice [2]): active in both of these tests
CSCC[C@H](NC(=O)[C@H](Cc1ccccc1)NC(=O)CNC(=O)CNC(=O)[C@@H](N)Cc1ccc(O)cc1)C(=O)O [methionine enkephalin, H2 N-Tyr-Gly-Gly-Phe-Met-OH]					binding to opiate / brain opioid receptor sites [4]: bind to the same receptor sites as do the opiates; opioid / morphine-like activity (opioid activity): some weak morphine-like actions
CC(=O)N[C@@H](Cc1ccccc1)C(=O)NCCNC(=O)[C@@H](N)Cc1c(C)cc(O)cc1C [Example 48, αS-(Acetylamino)-N-[(2-[[2S-amino-3-(4-hydroxy-2,6-dimethylphenyl)-1-oxopropyl]aminoethyl]benzenepropanamide, hydrochloride]		2.9 nM	0.3 nM	0.1	
Cc1cc(O)cc(C)c1C[C@H](N)C(=O)NCCNC(=O)[C@H](Cc1ccccc1)NC(=O)OCc1ccccc1 [Example 22, Phenylmethyl[1S-[[(2-(8 [2S-amino-3-[4-hydroxy-2,6-dimethylphenyl) -1-oxopropyl]ethylaminocarbonyl-2-phenylethylcarbamate, monohydrochloride]		3.1 nM	2.6 nM	0.8	
CCOC(=O)CNC(=O)N[C@@H](Cc1ccccc1)C(=O)NCC(C)(C)NC(=O)[C@@H](N)Cc1c(C)cc(O)cc1C [Example 35, hydrochloride]					IC50 (δ opioid receptors; [6]): ~2 nM; IC50 (μ opioid receptors; [7]): < 10 nM
